Columns and labels:
OVCAR8 = test: drug sensitivity score (DSS2) on cancer cell count; higher = more sensitive; extreme values may be limits of the assay; conditions: 72 h
Procedure, shortened: (§1)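 Ovarian cancer cells were cultured either alone or directly mixed 1:1 with lung or skin fibroblasts and plated onto 384-well plates acoustically pre-spotted with 528 approved and investigational compounds at 5 concentrations for 72 h of treatment. After fixation, cells were immunostained for CK8/18 with Hoechst and imaged at 10× across 4 fields to count cancer cells. Responses were fitted with 4-parameter logistic curves, and from these fits a drug sensitivity score was derived in Breeze, with screen quality assessed by Z'.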

KURAMOCHI = test: as above; conditions: 72 h
Procedure, shortened: as §1

[1] = co-cultured fibroblast: BJHTERT
[2] = co-cultured fibroblast: none (monoculture)

SMILES	drug sensitivity score (OVCAR8; [1]) [DSS]	drug sensitivity score (OVCAR8; co-cultured fibroblast: WI38) [DSS]	drug sensitivity score (OVCAR8; [2]) [DSS]	drug sensitivity score (KURAMOCHI; [1]) [DSS]	drug sensitivity score (KURAMOCHI; co-cultured fibroblast: WI38) [DSS]	drug sensitivity score (KURAMOCHI; [2]) [DSS]
CO[C@H]1C[C@@H]2CC[C@@H](C)[C@@](O)(O2)C(=O)C(=O)N2CCCC[C@H]2C(=O)O[C@H]([C@H](C)C[C@@H]2CC[C@@H](OC(=O)C(C)(CO)CO)[C@H](OC)C2)CC(=O)[C@H](C)/C=C(\C)[C@@H](O)[C@@H](OC)C(=O)[C@H](C)C[C@H](C)/C=C/C=C/C=C/1C [Temsirolimus]	8.8	0	11	16.8	14.2	8.6
COc1cc([C@@H]2c3cc4c(cc3[C@@H](O[C@@H]3O[C@@H]5CO[C@@H](c6cccs6)O[C@H]5[C@H](O)[C@H]3O)[C@H]3COC(=O)[C@H]23)OCO4)cc(OC)c1O [Teniposide]	0	0	0.4	0	0	0
CN1CCC(COc2cnc(-c3cccc(Cn4nc(-c5cccc(C#N)c5)ccc4=O)c3)nc2)CC1 [Tepotinib]	0	0	1.8	0.2	0	3
COc1cc2c(Nc3ccc(Cl)c(Cl)c3F)ncnc2cc1OC[C@@H]1C[C@@H]2CN(C)C[C@@H]2C1 [Tesevatinib]	3.3	0.4	3.4	5	1.4	11.7
O=C1CCC(N2C(=O)c3ccccc3C2=O)C(=O)N1 (stereo not given) [Thalidomide]	0	0	0	0	0	0
Nc1nc2[nH]cnc2c(=S)[nH]1 [Thioguanine]	4.8	7.3	13.6	5.3	5.7	7.7
O=c1sn(-c2cccc3ccccc23)c(=O)n1Cc1ccccc1 [Tideglusib]	0.4	1.5	0	0	0	0
Cn1cncc1[C@@](N)(c1ccc(Cl)cc1)c1ccc2c(c1)c(-c1cccc(Cl)c1)cc(=O)n2C [Tipifarnib]	5.5	2.5	12.5	14.9	18.3	12.9
CC#CC(=O)N1CC[C@@H](n2c(=O)n(-c3ccc(Oc4ccccc4)cc3)c3c(N)ncnc32)C1 [Tirabrutinib]	0	0	0	1.4	0	0
O=C1NC(=O)[C@@H](c2cn3c4c(cccc24)CCC3)[C@@H]1c1c[nH]c2ccccc12 [Tivantinib]	4	6.4	3.8	5.4	5.9	14
COc1cc2nccc(Oc3ccc(NC(=O)Nc4cc(C)on4)c(Cl)c3)c2cc1OC [Tivozanib]	2.8	8.9	4.9	5.7	3.8	0.4
C[C@@H]1CCN(C(=O)CC#N)C[C@@H]1N(C)c1ncnc2[nH]ccc12 [Tofacitinib]	0	0	0	0	0	12.2
CC[C@@]1(O)C(=O)OCc2c1cc1n(c2=O)Cc2cc3c(CN(C)C)c(O)ccc3nc2-1 [Topotecan]	22.2	23.1	30.4	20.9	25.7	28
CN(C)CCOc1ccc(/C(=C(/CCCl)c2ccccc2)c2ccccc2)cc1 [Toremifene]	3.2	0	3.5	2.1	0.8	2.3
CC(C)C[C@@H](C(=O)N[C@H](C(=O)OC1CCCC1)c1ccccc1)[C@H](O)C(=O)NO [Tosedostat]	14.5	11.4	6.5	2	1.3	2.1
Cc1cc(Nc2cc(N3CCN(C)CC3)nc(Sc3ccc(NC(=O)C4CC4)cc3)n2)n[nH]1 [Tozasertib]	20.1	19.5	20.9	22	19.4	23.7
CC(=O)Nc1cccc(-n2c(=O)n(C3CC3)c(=O)c3c(Nc4ccc(I)cc4F)n(C)c(=O)c(C)c32)c1 [Trametinib]	10.7	3.9	13.5	9	7.4	7.6
CC1=C(/C=C/C(C)=C/C=C/C(C)=C/C(=O)O)C(C)(C)CCC1 [Tretinoin]	0	0	0	0	0	8.2
NC(=S)N/N=C/c1ncccc1N [Triapine]	5.2	9.3	8.7	4.5	6.3	8.2
O=c1[nH]c(=O)n([C@H]2C[C@H](O)[C@@H](CO)O2)cc1C(F)(F)F [Trifluridine]	5.2	2.7	9	5.4	9.2	7.4

Reference: the supplement of paper PMC12420376
